Data taken from US20080033029A1, “Treating Digestive Tract Conditions” (MAYO FOUNDATION FOR MEDICAL EDUCATION AND RESEARCH, priority 2004, published 2008).

Experiments:
[1] = test system: ICC (interstitial cells of Cajal); experiment: ICC culture: number of ICC with or without 5HT; assay type: cell-based, mouse; details: 5HT 1 μM added every 12 hours for 24 hours; ICC from 6 day old Balb/C mice; c-kit antibody; untreated 8±0.5; P<0.0004; FIG. 1
Description: (§1) Blinded parallel cultures were established (n=2, 6 day old Balb/C mice yielding 6 coverslips). […] ICC were identified using an antibody to c-kit and counted. Mast cells, which were identified by their characteristic size and round shape, were not included in the analysis.

[2] = test system: ICC (interstitial cells of Cajal); experiment: Organotypic culture of adult mouse small intestine explants: ICC number; assay type: cell-based; details: 5HT 1 μM twice daily; explants from 6 month old mice; fixed at day 8; c-Kit staining, confocal 3D
Procedure: Briefly, one cm segments of mouse small intestine were cut, pinned flat mucosa side up, stripped of mucosa and submucosa layers, and placed into fresh, sterile-filtered Kreb's solution with 3 mM antibiotic. Krebs was removed, and DMEM (Dulbecco's Modified Eagle's Media) with 10% FBS (Fetal Bovine Serum) and 1% antibiotic/antimycotic was added to the culture. […] In the control explant, medium was added without 5HT. The tissue was fixed at day 8 and stained using an antibody to c-Kit. […]

[3] = test system: ICC (interstitial cells of Cajal); 5HT2B receptor; experiment: ICC culture: effect of 5HT2B receptor antagonist on the 5HT-induced increase in ICC number
Description: as §1

## NCCc1c[nH]c2ccc(O)cc12 [5HT, Serotonin]
[1]
  number of ICC per HPF: 14±0.4 ICC per HPF
[2]
  number of ICC in explant versus control explant: greater number of ICC

## Cc1cc(NC(=O)Nc2ccc3c(ccn3C)c2)sn1 [SB204741]
[3]
  number of ICC per HPF: 9±0.2 ICC per HPF
